In patent US20140219995A1, “INHIBITORS OF BACTERIAL TYPE III SECRETION SYSTEM” (priority 2011, published 2014):
pIC50: −log10 of the molar value. Where two headings read alike, the source gives them in different places.

Assays:
[1] = system: T3SS-mediated secretion of ExoS′-βLA fusion protein, P. aeruginosa strain MDM973; assay: Effector-β-lactamase (ExoS′-βLA) secretion assay; format: cell-based, Pseudomonas aeruginosa; settings: for pIC50: Pseudomonas aeruginosa, read-out: Avg. Secretion IC50
Description: Effector-β-Lactamase (βLA) Secretion Assays.
P. aeruginosa. A gene encoding an ExoS'-β-lactamase (βLA) fusion protein (comprised of 234 codons of P. aeruginosa effector ExoS fused to the TEM-1 β-lactamase gene lacking secretion signal codons) was constructed by splicing by overlap extension PCR (SOE-PCR) (Choi and Schweizer, 2005, BMC Microbiol., 5:30) using primers 5-10 (Table 3, above), sequence confirmed, cloned into lacI^Q-containing GATEWAY® vector pUCP24GW (see Moir, et al., 2007, J Biomol. Screen., 12:855-64) behind the lac promoter, and introduced into P. aeruginosa by electroporation (see Choi, et al., 2006, J. Microbiol. Methods, 64:391-7). Secretion of fusion proteins was detected by measuring the hydrolysis of the chromogenic β-lactamase substrate nitrocefin in clear 96-well microplates in a modification of a previously described assay (Lee, et al., 2007, Infect. Immun., 75:1089-98). Cells of strain MDM973 (PAK/pUCP24GW-exoS:blaM) were sub-cultured in the morning from overnight growths in LBG into 0.1 ml of LBGIE with or without test compounds and grown for 150 min. Nitrocefin (100 μg/ml final) was added, and A490 measurements taken every minute for 15 min in a Victor^3V 1420 Multilabel HTS Counter (PerkinElmer). Slopes were calculated as a relative measure of the quantity of the effector-βLA fusion protein secreted and were absolutely dependent on induction with IPTG, EGTA, and the presence of a functional pscC gene in the P. aeruginosa cells. Typical signal:background ratios were 6-10.

[2] = system: T3SS-mediated cytotoxicity of translocated effector protein ExoU in CHO cells; assay: Inhibition of P. aeruginosa ExoU-dependent CHO cell killing (translocation, LDH release); format: cell-based; settings: Pseudomonas aeruginosa, read-out: Avg. Translocation IC50
Description: Inhibition of P. aeruginosa ExoU-Dependent CHO Cell Killing.
Pseudolipasin, which acts by direct inhibition of the ExoU phospholipase, was used as control inhibitor (Lee, et al, 2007, Infect. Immun., 75:1089-98).

[3] = Determination of mammalian cytotoxicity (MTS); format: cell-based; settings: human
Experimental: Determination of Mammalian Cytotoxicity.
See, Marshall, et al., 1995, A critical assessment of the use of microculture tetrazolium assays to measure cell growth and function, Growth Regul., 5:69-84. Briefly, 96-well plates were seeded with HeLa cells at a density of 4×10^3 per well in VP-SFM medium without serum (Frazzati-Gallina, et al., 2001, J. Biotechnol., 92:67-72), in the presence or absence of serial dilutions of a compound dissolved in DMSO. Following incubation for 3 days at 37° C. in VP-SFM, cell viability was measured with the vital tetrazolium salt stain 3-(4,5-dimethylthiazol-2-yl)-2,5 diphenyltetrazolium bromide according to the manufacturer's instructions (Promega, Madison, Wis.). Values were determined in duplicate using dilutions of inhibitory compound from 100 μM to 0.2 μM.

[4] = Table 4, HeLa cells, 3 days, dilutions from 100 μM to 0.2 μM, read-out: Avg. CC50

| SMILES | pIC50 [1] | pIC50 [2] | CC50 at 3 days [3, 4] | melting point | CC50 at 3 days [3] | IC50 values lower (T3SS secretion inhibition) ([1]; vs. MBX-1641) |
| --- | --- | --- | --- | --- | --- | --- |
| CC(Oc1ccc(Cl)cc1Cl)C(=O)NCc1ccc2c(c1)CCCO2 (centres unmarked) [MBX-1997] | 5.14 | 5.04 | > 100 µM | 106 °C |  |  |
| CC(Oc1ncc(Cl)cc1Cl)C(=O)NCc1ccc(F)cc1 (centres unmarked) [MBX-2158] | 5.17 | 4.58 | > 100 µM | 129 °C |  |  |
| COc1ccc(CNC(=O)C(C)Sc2ccc(Cl)cc2Cl)cc1 (centres unmarked) [MBX-2163] | 5.08 | 4.91 |  | 89 °C | > 100 µM |  |
| CC(Oc1ccc(Cl)cc1Cl)C(=O)NC(C)(C)c1ccc2c(c1)OCO2 (centres unmarked) [MBX-2220] | 5.54 | 4.82 | 64 µM | 105 °C |  | 29% |
| CC(Oc1ccc(Cl)cc1Cl)C(=O)NCCc1ccc(F)cc1 (centres unmarked) [MBX-2588] | 5.26 | 4.17 | 25 µM | 129 °C |  |  |
| CC(Oc1ccc(Cl)cc1Cl)C(=O)NC1COc2cc(F)ccc21 (centres unmarked) [MBX-2589] | 4.60 | < 4.00 | 36 µM | 134 °C |  |  |
| CC(Oc1ccc(Cl)cc1Cl)C(=O)NCc1ccc2c(ccn2C)c1 (centres unmarked) [MBX-2591] | 5.39 | < 4.00 | 38 µM | 146 °C |  |  |
| CC(Oc1ccc(Cl)cc1Cl)C(=O)NCc1ccc2occc2c1 (centres unmarked) [MBX-2592] | 5.60 | < 4.00 | 44 µM | 125 °C |  |  |
| CC(Oc1ccc(Cl)cc1Cl)C(=O)NCc1ccc2[nH]cnc2c1 (centres unmarked) [MBX-2593] | 5.15 | 4.48 |  | 71 °C | > 100 µM |  |
| CC(Oc1ccc(Cl)cc1Cl)C(=O)NCc1ccc2cc[nH]c2c1 (centres unmarked) [MBX-2594] | 5.80 | 5.28 | 10.4 µM | 120 °C |  |  |
| CC(Oc1ccc(Cl)cc1Cl)C(=O)NC1CCc2cc(F)ccc21 (centres unmarked) [MBX-2595] | 4.80 | < 4.00 | 35 µM | 135 °C |  |  |
| Cc1c(-c2ccccc2)[nH]c2ccc(CNC(=O)C(C)Oc3ccc(Cl)cc3Cl)cc12 (centres unmarked) [MBX-2600] | 5.05 | 4.08 |  | 68 °C | 24 µM |  |
| CC(Oc1ccc(Cl)cc1Cl)C(=O)NCCc1c[nH]c2cc(F)ccc12 (centres unmarked) [MBX-2613] | 4.92 | 5.00 |  | 114 °C | 7 µM |  |
| CC(Oc1ccc(Cl)cc1Cl)C(=O)NC(c1ccc(F)cc1)C1CC1 (centres unmarked) [MBX-2614] | 5.82 | 5.08 | 12.8 µM | 109 °C |  |  |
| CC(Oc1ccc(Cl)cc1Cl)C(=O)NCc1ccc2[nH]c(CCO)cc2c1 (centres unmarked) [MBX-2626] | 5.27 | 5.04 |  | 157 °C | > 100 µM |  |
| CC(Oc1ccc(Cl)cc1Cl)C(=O)NC(C#N)c1ccc(F)cc1 (centres unmarked) [MBX-2627] | 5.23 | 4.96 | 26 µM | 112 °C |  |  |
